Our source for the EC50 values is BindingDB's records for doi:10.7270/Q2736PBV (Broad Institute, 2009).

This test has as its target T1, Streptokinase A (Streptococcus pyogenes serotype M1, UniProt P10520).
T1 sequence (P10520 whole entry): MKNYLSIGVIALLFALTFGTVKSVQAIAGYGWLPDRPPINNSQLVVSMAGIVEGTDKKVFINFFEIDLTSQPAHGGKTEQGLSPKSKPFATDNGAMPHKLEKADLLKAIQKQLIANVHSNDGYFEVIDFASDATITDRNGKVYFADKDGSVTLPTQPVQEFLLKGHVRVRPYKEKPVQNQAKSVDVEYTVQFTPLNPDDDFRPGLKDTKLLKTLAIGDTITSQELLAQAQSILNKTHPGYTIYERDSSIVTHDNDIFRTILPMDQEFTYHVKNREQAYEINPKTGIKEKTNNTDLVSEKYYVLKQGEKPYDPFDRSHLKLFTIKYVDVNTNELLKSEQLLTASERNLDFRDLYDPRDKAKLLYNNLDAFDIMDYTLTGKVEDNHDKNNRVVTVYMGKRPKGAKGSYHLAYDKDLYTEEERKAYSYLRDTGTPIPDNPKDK
Put plainly: S. pyogenes streptokinase expression inhibitors, potency, dose response, plasminogen activation absorbance, OD405 (AID 1914).
As for `COC(=O)c1sc(N2C(=O)C(=O)C(C(=O)c3ccc(C)o3)C2c2ccc([N+](=O)[O-])cc2)nc1C` (stereo not given) [methyl 2-[4-hydroxy-3-(5-methylfuran-2-carbonyl)-2-(4-nitrophenyl)-5-oxo-2H-pyrrol-1-yl]-4-methyl-1,3-thiazole-5-carboxylate], the half-maximal effective concentration (EC50) (in general, the concentration that produces a half-maximal response) was greater than 150 µM. In the case of `O=C1C=CC(N=Nc2ccc([N+](=O)[O-])cc2)C(O)=C1` (stereo not given) [MLS000530152] it was 50 µM. In the case of `Cc1ccc(SCC(=O)C(C#N)c2nc3ccccc3s2)cc1` (stereo not given) [(2Z)-2-(3H-1,3-benzothiazol-2-ylidene)-3-keto-4-(p-tolylthio)butyronitrile] it was greater than 150 µM.

In turn, `COc1ccc(C(=O)Oc2ccc(C(C)=O)cc2)c(OC)c1` [(4-acetylphenyl) 2,4-dimethoxybenzoate] had a concentration giving a half-maximal response (EC50) greater than 150 µM. For `CCOc1ccc(NC(=S)NNC2=c3ccccc3=NC2=O)cc1`, the EC50 was greater than 150 µM.

`CN(C)c1ccc(C2CC(c3ccc(Cl)cc3OC(F)F)=Nc3ncnn32)cc1` (stereo not given) yielded an EC50 greater than 150 µM.

On to `COc1ccc(NC(=S)NNC2=c3ccccc3=NC2=O)cc1` [SMR000413743], for which the half-maximal effective concentration (EC50) is greater than 150 µM. Consider `Cc1nn(-c2ccccc2)c(Cl)c1C1C2=C(CC(C)(C)CC2=O)OC(=N)C1C#N` (stereo not given) [2-azanyl-4-(5-chloranyl-3-methyl-1-phenyl-pyrazol-4-yl)-7,7-dimethyl-5-oxidanylidene-6,8-dihydro-4H-chromene-3-carbonitrile], for which the EC50 is greater than 150 µM.

`Cc1cccc(NC(=O)C2=C(N)C(C(=O)N3CCOCC3)/C(=N/c3c(C)cccc3C)S2)c1` (stereo not given) [3-amino-5-(2,6-dimethylphenyl)imino-N-(3-methylphenyl)-4-(morpholine-4-carbonyl)-2H-thiophene-2-carboxamide] returned a concentration giving a half-maximal response (EC50) of 3.32 µM. As for `N#CC(C(=O)CCl)c1nc2c(s1)CCc1ccccc1-2` (stereo not given) [MLS001171530], the figure is greater than 150 µM. In the case of `CCCc1sc(N=NCc2ccccn2)nc1-c1ccc(Br)cc1` [SMR000116777] it was greater than 150 µM; in that of `Cc1cc(C)c(N=Nc2c(C)[nH]n(C(N)=S)c2=O)c(C)c1`, greater than 150 µM; in that of `CCn1cc(C(=O)O)c(=O)c2cc(F)c(N=NCc3ccccc3[N+](=O)[O-])cc21` [SMR000171611], greater than 150 µM.

`O=C1N=c2ccccc2=C1NNC(=S)NCCc1ccccc1` [1-[(2-oxo-3-indolyl)amino]-3-(2-phenylethyl)thiourea] registered a concentration giving a half-maximal response (EC50) greater than 150 µM.

`CC(N=Nc1ccc(C(=O)O)cc1)c1ccc2c(c1)Nc1ccccc1S2` (stereo not given) [MLS000759774]: the EC50 is greater than 150 µM. Compound `O=C1C([N+](=O)[O-])=CC(Cl)=CC1/C=N/NC(=O)C(O)(c1ccccc1)c1ccccc1` (stereo not given) [N''''-[(E)-(3-chloro-5-nitro-6-oxocyclohexa-2,4-dien-1-ylidene)methyl]-2-hydroxy-2,2-diphenylacetohydrazide] yielded a half-maximal effective concentration (EC50) greater than 150 µM. The compound `O=C1N=C(Nc2ccc(F)cc2)SC1=Cc1c[nH]c2ccccc12` [(5Z)-2-[(4-fluorophenyl)amino]-5-(1H-indol-3-ylmethylidene)-1,3-thiazol-4-one] had a half-maximal effective concentration (EC50) greater than 150 µM.

Take `O=C1N=c2ccccc2=C1NNC(=S)N1CCOCC1` [MLS000778251]: the EC50 was greater than 150 µM. As for `O=C(O)c1ccc(N=NCc2ccc(OC(=O)c3cccc(Cl)c3)cc2)cc1` [4-[2-[[4-[(3-chlorophenyl)-oxomethoxy]phenyl]methylidene]hydrazinyl]benzoic acid], the figure is greater than 150 µM. `CCOc1cccc(CN=Nc2ccc(S(=O)(=O)N(CC)CC)cn2)c1O` [6-[2-[(E)-(5-ethoxy-6-oxidanylidene-cyclohexa-2,4-dien-1-ylidene)methyl]hydrazinyl]-N,N-diethyl-pyridine-3-sulfonamide]: the 50% effective concentration (EC50) is greater than 150 µM.

The compound `Cc1ccc(C(=O)CC(=O)C(=O)NC23CC4CC(CC(C4)C2)C3)cc1` [(Z)-N-(1-adamantyl)-4-hydroxy-4-(4-methylphenyl)-2-oxobut-3-enamide] came in with an EC50 greater than 150 µM.

Turning to `COc1ccccc1Nc1oc2cc(=O)ccc-2cc1C(N)=O` [2-(2-methoxyanilino)-7-oxo-1-benzopyran-3-carboxamide], the half-maximal effective concentration (EC50) was greater than 150 µM. As for `CN(C)CCN=CC(C(=O)Nc1ccc(Cl)cc1Cl)C(=O)Nc1ccc(Cl)cc1Cl` [N~1~,N~3~-bis(2,4-dichlorophenyl)-2-({[2-(dimethylamino)ethyl]amino}methylene)malonamide], the figure is greater than 150 µM; as for `CN1C(=O)/C(=N\NC(=O)c2cc(-c3cccs3)nc3ccccc23)c2ccccc21` [SMR000242891], greater than 150 µM; as for `C=CCn1c(-n2c(O)cc(Cc3ccccc3)c2O)nc2ccccc21`, greater than 150 µM.

For the compound `CC(C)C(N=Nc1ccccc1[N+](=O)[O-])c1ccccc1` (stereo not given) [MLS000712651], the EC50 is 18.4 µM. As for `Oc1ccc(CN=Nc2ccc3ccccc3c2)c(O)c1` [(4E)-3-hydroxy-4-[(2-naphthalenylhydrazo)methylidene]-1-cyclohexa-2,5-dienone], the figure is greater than 150 µM; as for `N#CC(C(=O)COc1ccccc1)c1nc2ccccc2s1` (stereo not given) [(2Z)-2-(3H-1,3-benzothiazol-2-ylidene)-3-keto-4-phenoxy-butyronitrile], 7.55 µM; as for `Cc1ccc(O)c(C2CC(c3ccc(Cl)cc3)N=N2)c1` (stereo not given) [SMR000414826], greater than 150 µM. In the case of `CN1C(=O)C(=NNC(=S)Nc2ccccc2F)c2cc(S(=O)(=O)N3CCOCC3)ccc21` [SMR000314843] it was greater than 150 µM.
